Assay results as given in ChEMBL document CHEMBL2331452, “3D-QSAR studies of 1,2-diaryl-1H-benzimidazole derivatives as JNK3 inhibitors with protective effects in neuronal cells” (Bioorg Med Chem Lett, 2013).

Biological target: Mitogen-activated protein kinase 10 (Homo sapiens, UniProt P53779)
Test: Binding affinity to JNK3 (unknown origin) by surface plasmon resonance analysis in presence of ATP

Chain of Mitogen-activated protein kinase 10 (P53779 whole entry): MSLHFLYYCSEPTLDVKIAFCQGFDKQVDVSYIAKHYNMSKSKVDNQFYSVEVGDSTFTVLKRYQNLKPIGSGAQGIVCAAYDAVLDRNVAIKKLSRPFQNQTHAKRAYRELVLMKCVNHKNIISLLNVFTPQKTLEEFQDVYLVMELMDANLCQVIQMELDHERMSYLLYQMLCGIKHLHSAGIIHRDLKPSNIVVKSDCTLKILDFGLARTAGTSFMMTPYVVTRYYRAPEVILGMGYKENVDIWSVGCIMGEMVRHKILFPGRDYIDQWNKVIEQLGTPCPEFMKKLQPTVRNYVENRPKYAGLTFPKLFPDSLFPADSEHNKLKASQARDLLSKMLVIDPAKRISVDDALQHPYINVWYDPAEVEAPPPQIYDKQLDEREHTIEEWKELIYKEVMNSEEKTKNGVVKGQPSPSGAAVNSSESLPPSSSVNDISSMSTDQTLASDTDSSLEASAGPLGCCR

Row | Kd (read-out: Kd) [µM] | Kd (read-out: pKd (converted)) [µM] | SMILES
1 | 6.05 | 6.03 | Oc1ccc2c(c1)nc(-c1ccc3ccccc3c1)n2-c1ccnc(N[C@@H]2CCCNC2)c1
2 | 10 | 10 | Oc1ccc2c(c1)nc(-c1ccc3ccccc3c1)n2-c1ccnc(NC2CCOCC2)c1
3 | 10.7 | 10.7 | O=C(C1CC1)N1CCC[C@@H](Nc2cc(-n3c(-c4ccc5ccccc5c4)nc4ccccc43)ccn2)C1
4 | 5.26 | 5.25 | c1ccc2cc(-c3nc4ccccc4n3-c3ccnc(NC4CCCCC4)c3)ccc2c1
5 | 19.1 | 19.1 | C[C@H](O)CNc1cc(-n2c(-c3cccc(O)c3)nc3ccccc32)ccn1
6 | 4.65 | 4.68 | c1ccc2cc(-c3nc4ccccc4n3-c3ccnc(NC4CCOCC4)c3)ccc2c1
7 | 24.5 | 24.5 | Oc1ccc2c(c1)nc(-c1ccc3ccccc3c1)n2-c1ccnc(NC2CCCCC2)c1
8 | 12.7 | 12.6 | C[C@H](O)CNc1cc(-n2c(-c3ccc4ccccc4c3)nc3ccccc32)ccn1
9 | 176 | 178 | COc1ccc2c(c1)nc(-c1ccc3ccccc3c1)n2-c1ccnc(NC2CCCCC2)c1

Continued, molecule first:

Row | SMILES | Kd (read-out: Kd) [µM] | Kd (read-out: pKd (converted)) [µM]
10 | Oc1ccc2c(c1)nc(-c1ccc(Cl)c(Cl)c1)n2-c1ccnc(NC2CCCCC2)c1 | 13.8 | 13.8
11 | COc1ccc2c(c1)nc(-c1ccc3ccccc3c1)n2-c1ccnc(N[C@@H]2CCCN(C(=O)C3CC3)C2)n1 | 2.91 | 2.88
12 | O=C(C1CC1)N1CCC[C@@H](Nc2nccc(-n3c(-c4ccc5ccccc5c4)nc4cc(O)ccc43)n2)C1 | 2.65 | 2.63
13 | Oc1ccc2c(c1)nc(-c1ccc3ccccc3c1)n2-c1ccnc(NC2CCCCC2)n1 | 1.89 | 1.91
14 | Clc1ccc(-c2nc3ccccc3n2-c2ccnc(NC3CCOCC3)n2)cc1Cl | 21.8 | 21.9
15 | Oc1ccc2nc(-c3ccc4ccccc4c3)n(-c3ccnc(NC4CCOCC4)n3)c2c1 | 6 | 6.03
16 | COc1ccc2nc(-c3ccc4ccccc4c3)n(-c3ccnc(NC4CCCCC4)n3)c2c1 | 1.77 | 1.74
17 | O=C(C1CC1)N1CCC[C@@H](Nc2cc(-n3c(-c4cccc(O)c4)nc4ccccc43)ccn2)C1 | 2.64 | 2.63
18 | Oc1ccc2nc(-c3ccc4ccccc4c3)n(-c3ccnc(NC4CCCCC4)n3)c2c1 | 31.7 | 31.6
19 | COc1ccc2nc(-c3ccc4ccccc4c3)n(-c3ccnc(N[C@@H]4CCCN(C(=O)C5CC5)C4)n3)c2c1 | 1.17 | 1.17
20 | O=C(C1CC1)N1CCC[C@@H](Nc2nccc(-n3c(-c4ccc(Cl)c(Cl)c4)nc4ccccc43)n2)C1 | 7.69 | 7.76
21 | c1ccc2cc(-c3nc4ccccc4n3-c3ccnc(NC4CCCCC4)n3)ccc2c1 | 1.75 | 1.74
22 | c1ccc2cc(-c3nc4ccccc4n3-c3ccnc(N[C@@H]4CCCNC4)n3)ccc2c1 | 2.98 | 2.95
23 | O=C(C1CC1)N1CCC[C@@H](Nc2cc(-n3c(-c4ccc5ccccc5c4)nc4cc(O)ccc43)ccn2)C1 | 27.7 | 27.5
24 | COc1ccc2c(c1)nc(-c1ccc3ccccc3c1)n2-c1ccnc(NC2CCCCC2)n1 | 0.743 | 0.741
25 | COc1ccc2c(c1)nc(-c1ccc(Cl)c(Cl)c1)n2-c1ccnc(NC2CCCCC2)c1 | 18.1 | 18.2
26 | Oc1ccc2c(c1)nc(-c1ccc3ccccc3c1)n2-c1ccnc(NC2CCOCC2)n1 | 1.66 | 1.66
27 | O=C(C1CC1)N1CCC[C@@H](Nc2nccc(-n3c(-c4ccc5ccccc5c4)nc4ccccc43)n2)C1 | 1.93 | 1.95
28 | c1ccc2cc(-c3nc4ccccc4n3-c3ccnc(NC4CCOCC4)n3)ccc2c1 | 2.33 | 2.34
